For this test, the target named is PfHRPII HT-GFP (HT/RLLYE-GFP). In kind it is binding, Plasmodium falciparum.

pKd: −log10 of the molar value.

Our source for the Kd values is paper PMC3268671 (Cell, 2012).

As usually defined, the pKd is −log10 of the Kd, conventionally taken in molar units. Low values mean a high Kd, high ones a low Kd.

PI(3)P gave a pKd below 5.30.
